Experimental data as given in paper PMC3496871 (Molecular bioSystems, 2012).
“Also recorded” adds a separate entry of the source.

Tests used:
[1] = target: T1, Eis_Mtb (Mycobacterium tuberculosis, UniProt P9WFK7); conditions: cited from earlier work
[2] = target: T2, Eis_Ava (Trichormus variabilis (Anabaena variabilis), UniProt Q3M362); experiment: Regio-specificity of NEA acetylation by Eis_Ava; format: biochemical
[3] = test system: Eis_Msm; conditions: cited from earlier work
[4] = target: T2, Eis_Ava; experiment: biochemical; format: biochemical
[5] = test system: Eis_Ava; experiment: biochemical; format: biochemical
[6] = target: T3, Eis_Msm (Mycolicibacterium smegmatis, UniProt A0QY29); format: biochemical; conditions: read-out: IC50 Eis_Msm; NEO acetylation
[7] = target: T1, Eis_Mtb; conditions: transfer onto a few AGs; cited from earlier work
[8] = target: T2, Eis_Ava; experiment: Acyl-CoA cosubstrate profile of Eis_Ava; format: biochemical; conditions: 6 acyl-CoA cosubstrates tested
[9] = test system: CN[C@@H]1[C@@H](O[C@H]2O[C@H](CO)[C@@H](N)[C@H](O)[C@H]2O)OC2C[C@@H](N)[C@@H](O[C@H]3[C@H](O)[C@@H](O)[C@H](N)C[C@@H]3N)OC2[C@@H]1O; experiment: purified protein, by the assay type; format: biochemical, Anabaena variabilis; conditions: other: Eis_Ava […], 500 μM AcCoA, apparent, pH 7.5
[10] = test system: NC[C@@H]1O[C@H](O[C@H]2[C@@H](O)[C@H](O[C@@H]3[C@@H](O)[C@H](N)C[C@H](N)[C@H]3O[C@H]3O[C@H](CO)[C@@H](O)[C@H](O)[C@H]3N)O[C@@H]2CO)[C@H](N)[C@@H](O)[C@@H]1O; experiment: purified protein, by the assay type; format: biochemical, Anabaena variabilis; conditions: other: Eis_Ava […], 500 μM AcCoA, apparent, pH 7.5
[11] = test system: NC[C@H]1O[C@H](O[C@H]2[C@H](O)[C@@H](O)[C@H](N)C[C@@H]2N)[C@H](N)[C@@H](O)[C@@H]1O; experiment: purified protein, by the assay type; format: biochemical, Anabaena variabilis; conditions: other: Eis_Ava […], 500 μM AcCoA, apparent, pH 7.5
[12] = test system: NC[C@@H]1O[C@H](O[C@H]2[C@@H](O)[C@H](O[C@@H]3[C@@H](O)[C@H](N)C[C@H](N)[C@H]3O[C@H]3O[C@H](CN)[C@@H](O)[C@H](O)[C@H]3N)O[C@@H]2CO)[C@H](N)[C@@H](O)[C@@H]1O; experiment: purified protein, by the assay type; format: biochemical, Anabaena variabilis; conditions: other: Eis_Ava […], 500 μM AcCoA, apparent, pH 7.5
[13] = target: T2, Eis_Ava; experiment: Number of acetylations of AGs by Eis_Ava; format: biochemical; conditions: mass spectrometry; AG 0.67 mM, AcCoA 6.7 mM, Eis_Ava 10 μM, overnight at rt
[14] = target: T1, Eis_Mtb; format: biochemical; conditions: 500 μM AcCoA, apparent
[15] = test system: NC[C@H]1O[C@H](O[C@H]2[C@H](O)[C@@H](O)[C@H](N)C[C@@H]2N)[C@H](N)[C@@H](O)[C@@H]1O; experiment: purified protein, by the assay type; format: biochemical, Mycobacterium tuberculosis; conditions: other: Eis_Mtb […], 500 μM AcCoA, apparent, pH 7.5
[16] = target: T1, Eis_Mtb; format: biochemical; conditions: AG 0.1 mM, AcCoA 0.5 mM, Eis 0.5 μM
[17] = target: T3, Eis_Msm; experiment: UV-Vis assay of Eis_Msm activity against KAN and 6′-glycinyl-KAN; conditions: AG 0.1 mM, AcCoA 0.5 mM, Eis 0.5 μM
[18] = target: T2, Eis_Ava; experiment: UV-Vis assay of Eis_Ava activity against KAN and 6′-glycinyl-KAN; conditions: AG 0.1 mM, AcCoA 0.5 mM, Eis 0.5 μM
[19] = test system: CN[C@@H]1[C@@H](O[C@H]2O[C@H](CO)[C@@H](N)[C@H](O)[C@H]2O)OC2C[C@@H](N)[C@@H](O[C@H]3[C@H](O)[C@@H](O)[C@H](N)C[C@@H]3N)OC2[C@@H]1O; experiment: purified protein, by the assay type; format: biochemical, Mycobacterium smegmatis; conditions: other: Eis_Msm […], 500 μM AcCoA, apparent, pH 7.5
[20] = test system: NC[C@@H]1O[C@H](O[C@H]2[C@@H](O)[C@H](O[C@@H]3[C@@H](O)[C@H](N)C[C@H](N)[C@H]3O[C@H]3O[C@H](CO)[C@@H](O)[C@H](O)[C@H]3N)O[C@@H]2CO)[C@H](N)[C@@H](O)[C@@H]1O; experiment: purified protein, by the assay type; format: biochemical, Mycobacterium smegmatis; conditions: other: Eis_Msm […], 500 μM AcCoA, apparent, pH 7.5
[21] = test system: NC[C@H]1O[C@H](O[C@H]2[C@H](O)[C@@H](O)[C@H](N)C[C@@H]2N)[C@H](N)[C@@H](O)[C@@H]1O; experiment: purified protein, by the assay type; format: biochemical, Mycobacterium smegmatis; conditions: other: Eis_Msm […], 500 μM AcCoA, apparent, pH 7.5
[22] = test system: NC[C@@H]1O[C@H](O[C@H]2[C@@H](O)[C@H](O[C@@H]3[C@@H](O)[C@H](N)C[C@H](N)[C@H]3O[C@H]3O[C@H](CN)[C@@H](O)[C@H](O)[C@H]3N)O[C@@H]2CO)[C@H](N)[C@@H](O)[C@@H]1O; experiment: purified protein, by the assay type; format: biochemical, Mycobacterium smegmatis; conditions: other: Eis_Msm […], 500 μM AcCoA, apparent, pH 7.5

T1 sequence (P9WFK7 whole entry): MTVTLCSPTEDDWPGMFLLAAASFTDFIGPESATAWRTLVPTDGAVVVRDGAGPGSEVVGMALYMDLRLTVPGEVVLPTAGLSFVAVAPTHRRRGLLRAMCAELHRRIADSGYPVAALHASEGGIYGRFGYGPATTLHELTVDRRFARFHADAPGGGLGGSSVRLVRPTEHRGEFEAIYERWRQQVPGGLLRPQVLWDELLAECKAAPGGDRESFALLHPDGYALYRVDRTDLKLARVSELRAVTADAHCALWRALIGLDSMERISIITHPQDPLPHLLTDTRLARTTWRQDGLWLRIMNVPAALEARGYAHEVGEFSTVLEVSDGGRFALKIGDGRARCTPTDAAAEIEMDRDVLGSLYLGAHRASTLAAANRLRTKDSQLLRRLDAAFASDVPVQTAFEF

## NC[C@H]1O[C@H](O[C@H]2[C@H](O)[C@@H](O)[C@H](N)C[C@@H]2N)[C@H](N)[C@@H](O)[C@@H]1O [NEA, neamine]
[1]
  positions sequentially acetylated by Eis_Mtb: 2′-, 6′-, and 1-position
[2]
  number of acetylations of NEA by Eis_Ava observed by TLC and NMR: di-acetylation
[2]; TLC and NMR
  first position acetylated by Eis_Ava: 2′-position
  second site modified by Eis_Ava: 1-position
[3]
  positions sequentially acetylated by Eis_Msm: 2′-, 6′-, and 1-position

## [H]/N=C(\N/C(=N/[H])NCCCCCCNC(=N)NC(=N)Nc1ccc(Cl)cc1)Nc1ccc(Cl)cc1 [compound 1, chlorhexidine]
[4]
  IC50: 20 ± 7 µM
[5]
  IC50 for Eis_Ava fold higher than against Eis_Msm: 11 fold
  IC50 for Eis_Ava fold higher than for Eis_Mtb: 107 fold
[6]
  IC50: 1.85 ± 0.39 µM

## CCC(=O)SCCNC(=O)CCNC(=O)[C@H](O)C(C)(C)COP(=O)(O)OP(=O)(O)OC[C@H]1O[C@@H](n2cnc3c(N)ncnc32)[C@H](O)[C@@H]1OP(=O)(O)O [n-propionyl-CoA]
[7]
  acceptance as cosubstrate by Eis_Mtb: efficiently accepting
[8]
  acceptance as cosubstrate by Eis_Ava: accepted

## Eis_Ava (Trichormus variabilis ATCC 29413)
[9]
  Km: 337 ± 98 µM
  kcat: 0.019 ± 0.002 s⁻¹
  kcat/Km: 57 ± 18 M⁻¹ s⁻¹
[10]
  Km: 237 ± 36 µM
  kcat: 0.183 ± 0.013 s⁻¹
  kcat/Km: 773 ± 132 M⁻¹ s⁻¹
[11]
  Km: 42 ± 9 µM
  kcat: 0.352 ± 0.021 s⁻¹
  kcat/Km: 7410 ± 1940 M⁻¹ s⁻¹
[12]
  Km: 101 ± 16 µM
  kcat: 0.106 ± 0.006 s⁻¹
  kcat/Km: 1050 ± 184 M⁻¹ s⁻¹

## NC[C@@H]1O[C@H](O[C@H]2[C@@H](O)[C@H](O[C@@H]3[C@@H](O)[C@H](N)C[C@H](N)[C@H]3O[C@H]3O[C@H](CO)[C@@H](O)[C@H](O)[C@H]3N)O[C@@H]2CO)[C@H](N)[C@@H](O)[C@@H]1O [PAR, paromomycin]
[13]
  number of acetylations by Eis_Ava: tri-acetylation
[14]
  Km: 110 ± 21 µM
  kcat: 0.136 ± 0.012 s⁻¹
[1]
  number of acetylations by Eis_Mtb: di-acetylation
[3]
  number of acetylations by Eis_Msm: tri-acetylation

## CC(=O)SCCNC(=O)CCNC(=O)[C@H](O)C(C)(C)COP(=O)(O)OP(=O)(O)OC[C@H]1O[C@@H](n2cnc3c(N)ncnc32)[C@H](O)[C@@H]1OP(=O)(O)O [AcCoA]
[7]
  acceptance as cosubstrate by Eis_Mtb: efficiently accepting
[8]
  acceptance as cosubstrate by Eis_Ava: accepted

## Eis_Mtb (Mycobacterium tuberculosis H37Rv)
[15]
  Km: 1315 ± 492 µM
  kcat: 0.699 ± 0.136 s⁻¹
  kcat/Km: 532 ± 224 M⁻¹ s⁻¹

## NCC(=O)NCC1OC(OC2C(N)CC(N)C(OC3OC(CO)C(O)C(N)C3O)C2O)C(O)C(O)C1O (stereo not shown) [6′-glycinyl-KAN]
[16]
  acetylation by Eis_Mtb (UV-Vis): not a substrate; also recorded: almost inactive
[17]
  acetylation by Eis_Msm (UV-Vis): not a substrate; also recorded: almost inactive
[18]
  acetylation by Eis_Ava (UV-Vis): not a substrate; also recorded: almost inactive

## Eis_Msm (Mycolicibacterium smegmatis MC2 155)
[19]
  Km: 150 ± 43 µM
  kcat: 0.019 ± 0.002 s⁻¹
  kcat/Km: 127 ± 39 M⁻¹ s⁻¹
[20]
  Km: 738 ± 158 µM
  kcat: 0.235 ± 0.033 s⁻¹
  kcat/Km: 318 ± 82 M⁻¹ s⁻¹
[21]
  Km: 1302 ± 312 µM
  kcat: 0.687 ± 0.083 s⁻¹
  kcat/Km: 528 ± 142 M⁻¹ s⁻¹
[22]
  Km: 110 ± 14 µM
  kcat: 0.148 ± 0.006 s⁻¹
  kcat/Km: 1340 ± 180 M⁻¹ s⁻¹

## CC(C)(COP(=O)(O)OP(=O)(O)OC[C@H]1O[C@@H](n2cnc3c(N)ncnc32)[C@H](O)[C@@H]1OP(=O)(O)O)[C@@H](O)C(=O)NCCC(=O)NCCSC(=O)CC(=O)O [malonyl-CoA]
[7]
  acceptance as cosubstrate by Eis_Mtb: moderately so

## CN[C@@H]1[C@H](O)[C@H](NC)[C@H]2O[C@@]3(O)C(=O)C[C@@H](C)O[C@H]3O[C@@H]2[C@H]1O [SPT, spectinomycin]
[13]
  number of acetylations by Eis_Ava: not be substrates

## kanamycin A
[16]
  acetylation by Eis_Mtb (UV-Vis): efficiently gets multi-acetylated
[17]
  acetylation by Eis_Msm (UV-Vis): efficiently gets multi-acetylated
[18]
  acetylation by Eis_Ava (UV-Vis): efficiently gets multi-acetylated

## CN[C@@H]1[C@@H](O[C@H]2O[C@H](CO)[C@@H](N)[C@H](O)[C@H]2O)OC2C[C@@H](N)[C@@H](O[C@H]3[C@H](O)[C@@H](O)[C@H](N)C[C@@H]3N)OC2[C@@H]1O (stereo partly shown) [APR, apramycin]
[13]
  number of acetylations by Eis_Ava: mono-acetylated
[1]
  substrate of Eis_Mtb: not be a substrate
[3]
  number of acetylations by Eis_Msm: Di-acetylation

## [H]/N=C(/N)N[C@H]1[C@H](O)[C@@H](O)[C@H](O[C@@H]2O[C@@H](C)[C@](O)(C=O)[C@H]2O[C@@H]2O[C@@H](CO)[C@H](O)[C@@H](O)[C@@H]2NC)[C@@H](N/C(N)=N\[H])[C@@H]1O [STR, streptomycin]
[13]
  number of acetylations by Eis_Ava: not be substrates

## C/C=C/C(=O)SCCNC(=O)CCNC(=O)[C@H](O)C(C)(C)COP(=O)(O)OP(=O)(O)OC[C@H]1O[C@@H](n2cnc3c(N)ncnc32)[C@H](O)[C@@H]1OP(=O)(O)O [crotonyl-CoA]
[7]
  acceptance as cosubstrate by Eis_Mtb: moderately so
